# Measured values reported in publication PMC11859031, “Assessment of the In Vitro Biological Activities of Schiff Base-Synthesized Copper Oxide Nanoparticles as an Anti-Diabetic, Anti-Alzheimer, and Anti-Cancer Agent” (Pharmaceutics, 2025).
# How the values were obtained:
# α-amylase = target: T1, α-amylase (Sus scrofa, UniProt P00690); assay: α-amylase inhibition (anti-diabetic); format: biochemical; settings: at 100 µg/mL; mean ± SE, n = 3
# T1 sequence (P00690 16-511): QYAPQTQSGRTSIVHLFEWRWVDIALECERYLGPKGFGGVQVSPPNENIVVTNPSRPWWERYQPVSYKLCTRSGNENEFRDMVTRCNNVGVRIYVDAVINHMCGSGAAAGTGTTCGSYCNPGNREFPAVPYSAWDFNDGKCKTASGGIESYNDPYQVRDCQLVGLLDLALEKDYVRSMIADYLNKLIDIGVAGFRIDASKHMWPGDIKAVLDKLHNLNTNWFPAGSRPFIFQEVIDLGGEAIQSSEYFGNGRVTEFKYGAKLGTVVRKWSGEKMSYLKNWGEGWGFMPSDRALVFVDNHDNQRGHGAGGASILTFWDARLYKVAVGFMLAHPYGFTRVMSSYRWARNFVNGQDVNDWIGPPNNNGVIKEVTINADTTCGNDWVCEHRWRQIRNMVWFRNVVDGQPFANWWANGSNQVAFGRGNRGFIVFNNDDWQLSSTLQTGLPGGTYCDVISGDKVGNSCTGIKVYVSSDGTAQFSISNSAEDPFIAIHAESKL
# Experimental: 3.3. Anti-diabetic activity […]
# tetrahydrate in 8.0 mL of 2 M NaOH and 20 mL of 96 mM of DNSA solution). The […]
# (§1) The absorbance was measured at 540 nm using a UV-Visible spectrophotometer. The IC50 of each tested sample was calculated by plotting a curve using a series of sample concentrations against the percent of α-amylase inhibition.
# (§2) The inhibition percentage (%) of the α-glucosidase enzyme was determined using the […]
# (§3) standard drug. Five μL of the α-glucosidase solution (10 units mL−1, 0.1moll−1 potassium phosphate buffer, pH 6.8) was pre -mixed with 10 μL of the sample solution at different concentrations (in 10% DMSO) i n 620 μL of 0.1 moll−1 potassium […]
# (§4) phosphate buffer (pH 6.8). […]
# (§5) phenyl glucopyranoside (pNPG, 10 mmoll−1) as a substrate was added to the mixture […]
# (§6) minutes, followed by the addition of 650 μL of 1 moll−1 Na2CO3 solution to terminate the reaction. The amount of released product (p-nitro phenol) was measured at 410 […]
# activity. […] The IC50 of each tested sample was calculated by plotting a curve using a series of sample concentrations against the percent of α-glucosidase inhibition. […]
# (§7) In this study, we assessed the inhibition percentage of the acetylcholinesterase (AChE) enzyme using Ellman's method with donepezil as the standard drug. […] After incubation, 5 µL of AChE at a concentration of 0.3 U/mL was added to start the reaction, and the absorbance […]
# α-glucosidase = α-glucosidase (Saccharomyces cerevisiae, UniProt P53341); format: biochemical
# Experimental: as §1, §2, §3, §4, §5, §6
# activity. The inhibition assay was performed in triplicate for all tests. The IC50 of each tested sample was calculated by plotting a curve using a series of sample concentrations against the percent of α-glucosidase inhibition.
# 3.4. Anti-Alzheimer's activity
# as §7
# α-glucosidase, sequence (P53341 whole entry): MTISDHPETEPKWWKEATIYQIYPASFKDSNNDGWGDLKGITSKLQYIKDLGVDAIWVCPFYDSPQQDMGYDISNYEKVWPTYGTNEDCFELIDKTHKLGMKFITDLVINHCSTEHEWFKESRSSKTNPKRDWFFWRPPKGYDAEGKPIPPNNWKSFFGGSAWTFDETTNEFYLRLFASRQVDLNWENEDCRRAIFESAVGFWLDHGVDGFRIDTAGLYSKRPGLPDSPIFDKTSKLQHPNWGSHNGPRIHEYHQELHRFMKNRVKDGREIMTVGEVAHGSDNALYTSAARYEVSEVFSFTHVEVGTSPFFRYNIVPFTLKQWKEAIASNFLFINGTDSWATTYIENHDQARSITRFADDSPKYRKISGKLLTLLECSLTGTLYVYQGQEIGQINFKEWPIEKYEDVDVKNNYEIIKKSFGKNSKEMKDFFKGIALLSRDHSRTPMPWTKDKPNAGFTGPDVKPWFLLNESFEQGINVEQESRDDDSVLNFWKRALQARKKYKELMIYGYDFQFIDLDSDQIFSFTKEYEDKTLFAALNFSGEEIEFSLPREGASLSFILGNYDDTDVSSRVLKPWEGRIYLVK
smiles,measurement,setting,value
C[C@H]1O[C@H](O[C@H]2[C@H](O)[C@@H](O)[C@@H](O[C@H]3[C@H](O)[C@@H](O)C(O)O[C@@H]3CO)O[C@@H]2CO)[C@H](O)[C@@H](O)[C@@H]1N[C@H]1C=C(CO)[C@@H](O)[C@H](O)[C@H]1O (some centres unmarked) [Acarbose],α-Amylase Inhib. (%),α-amylase,54.96 ± 0.10 Acarbose %
same,α-Glucosidase Inhib. (%),α-glucosidase,44.71 ± 0.10 Acarbose %
